We go through five molecules from article PMC12176268, “Structural Features and Photophysical and Antiproliferative Properties of Me2N‑pbt-Cycloplatinated Complexes with Picolinate Ligands” (Inorganic Chemistry, 2025).

Read-outs that look alike come from different tables or passages of the source.

Data set [1] can be described thus: Stability in serum-free DMEM containing 5% DMSO by UV–vis. It counts as physicochemical. To be noted: DMEM with 5% DMSO, 25 μM, 37 °C; for stability in serum-free DMEM, UV–vis spectral changes, first 4 h: dark or with 5 min irradiation at 450 nm. From the text:
The stability of complexes 1–4 was then investigated in more biologically relevant media by UV–visible spectroscopy. First, the stability of the complexes was studied in phosphate-buffered saline (PBS) containing 5% DMSO (Figure S30). […] Only a decrease in the intensity of all bands was observed, which could be attributed to partial aggregation and/or precipitation. […] The stability of complexes 1–4 was next studied in serum-free DMEM cell culture containing 5% DMSO (Figure S31). […] This final species seemed to have spectral features similar to those observed for complex 4 (Figure S31A). […] The similarity of the spectral features of the transformed species in all cases seemed to point to the formation of a common species upon incubation in DMEM, which we tentatively attribute to the decoordination of the picolinate ligands with a substituent-dependent kinetics; the COOH group favored the release of the picolinate ligand, while both NH2 and OH substituents seemed to slow down this process.
The UV–vis spectra of complexes 1–4 were recorded in PBS:DMSO (95/5) and serum-free DMEM:DMSO (95/5) at a concentration of 25 μM on a Cary 50 spectrophotometer (Varian).

Data set [2] has as its system MDA-MB-231. Put plainly: MTT cell viability assay on MDA-MB-231 cells, dark and 450 nm irradiation. The settings on record: for EC50: MTT. It counts as cell-based, human. The source says: (§1) (C∧N) cyclometalated Pt(II) complexes have been previously reported to have strong antiproliferative activities when associated with phenanthroline-based, diphosphine, acyclic diamino carbenes, or picolinate ligands. In particular, (Me2N-pbt)-cyclometalated platinum complexes have been previously reported by some of us to have antiproliferative properties in the micromolar range on a panel of cancer cell lines, prompting us to investigate the anticancer properties of complexes 1–4 in dark conditions and, considering their high quantum yield (ϕΔ) of ^1O2 generation, under irradiation conditions. Due to the poor solubility of the complexes in an aqueous environment, complexes 1–4 were first dissolved in DMSO and diluted in the culture media to reach a final concentration of 1% DMSO when incubated with the cells. All complexes were screened against the so-called “triple-negative” breast cancer cell line MDA-MB-231, lung adenocarcinoma cell line A549, and the noncancerous breast cell line MCF-10A for 72 h in dark conditions and under 5 min irradiation at 450 nm (see Experimental Section for details). The irradiation time was kept short to prevent light-induced toxicity of the energetic wavelength observed at longer irradiation times (data not shown). The measurement of the effective concentration at 50% (EC50) was carried out using the classical MTT assay, and the data are provided in Table .
(§2) In dark conditions, we could notice a strong influence of substituents on the picolinate ligands. […] This can be correlated with its poor stability in the culture medium mentioned above, which might reduce its cellular uptake. […] However, in dark conditions, no particular selectivity for cancer cells could be observed with similar activity measured against the noncancerous cell line MCF-10A. For the “light” experiments, the cells were preincubated with the complexes for 4 h in the dark, irradiated at 450 nm for 5 min, and then put back in the dark until 72 h. The photoactivity index (PI) values, defined as the ratio between the EC50 in dark conditions and the EC50 after irradiation for each cell line, are shown in Figure .
(§3) The human lung adenocarcinoma cell line A549 and human breast cancer cell line MDA-MB-231 were cultivated in DMEM (Dulbecco’s modified Eagle’s medium) containing GlutaMax I supplemented with 10% FBS at 37 °C in a humidified atmosphere and 5% CO2. The noncancerous cell line MCF-10A was maintained in DMEM:F12 (1:1) cell culture media, 5% heat-inactivated horse serum, supplemented with HEPES (20 mM), L-glutamine (2 mM), epidermal growth factor (20 ng/mL), hydrocortisone (500 ng/mL), cholera toxin (100 ng/mL), and insulin (10 μg/mL). Cell viability was evaluated by using a colorimetric method based on the tetrazolium salt MTT [3-(4,5-dimethylthiazol-2-yl)-2,5-diphenyltetrazolium bromide], which is reduced by viable cells to yield purple formazan crystals. Cells were seeded in 96-well plates at a density of 40000 cells/mL (100 μL per well). Stock solutions were prepared in DMSO for complexes 1–4 and in water for cisplatin. […] For dark experiments, after overnight attachment, a dilution series of the compounds was added to the medium, and the cells were incubated for a further 72 h. For the irradiated experiments, after overnight attachment, a dilution series of the compounds was added to the medium, and the cells were preincubated for 4 h. The cells were then irradiated at 450 nm for 5 min with a Kessil Lamp (power: 3 mW/cm^2, 1.13 × 10^–8 Einstein/s at 20 cm distance between the light source and 96-well plate) and the incubation was continued until 72 h. After 72 h, the medium was removed and the cells were incubated with MTT solution in PBS (10 μL of 5 mg/mL) for 2–3 h. The formed purple formazan crystals were dissolved in 100 μL of DMSO by thorough shaking, and the absorbance at 580 nm was read using a microplate reader (FLUOstar OPTIMA, BMG Labtech). Each test was performed with at least 3 replicates and repeated at least 3 times. […]

Data set [3] relates to A549. Description: MTT cell viability assay on A549 cells, dark and 450 nm irradiation. The class given is cell-based, human. The settings on record: for EC50: MTT.
From the text: as §1, §2, §3

A short description of data set [4]: Singlet oxygen generation, NIR emission at 1274 nm versus phenalenone. It counts as physicochemical. The settings on record: aerated acetonitrile 5 × 10^–5 M, 298 K, excitation 365 nm, reference phenalenone. The protocol: In aerated DMSO solutions, complexes 1–3 display a fluorescence band only at ca 510 nm, attributed to ^1LL′CT/^1ILCT, due to easy quenching of the phosphorescence by oxygen. However, upon prolonged photoexcitation at 365 nm, a continuous enhancement of the phosphorescence band is observed. Simply irradiating with a hand UV–vis lamp, the initial blue-green emission gradually shifts to the orange enhanced emission. The phosphorescence increases its maximum intensity in ca 15 1, 8 2, or 12 min 3 (Figures and S23). […] This relatively rare behavior has been previously observed by us , and other groups, and is explained by the occurrence of a local sensitization caused by energy transfer from the low-energy triplet to ^3O2-producing singlet ^1O2, which is able to selectively react with the solvent creating a free oxygen microenvironment that switches-on a phosphorescence band due to ^3ILCT at 580 nm. The strong sensitivity of the phosphorescence emission in these complexes encourages us to determine their efficiency as ^1O2 sensitizers. The singlet oxygen generation of complexes 1–3 was examined in acetonitrile solution (5 × 10^–5 M) using a near-infrared detector upon excitation at 365 nm, detecting the characteristic emission profile of ^1O2 at λem ∼ 1274 nm (Figure ).

Data set [5] relates to MCF-10A. Description: MTT cell viability assay on noncancerous MCF-10A cells, dark and 450 nm irradiation. The class given is cell-based, human. The settings on record: for EC50: MTT.
From the text: as §1, §2, §3

Data set [6] relates to A549. More on the design: method as in not given. To be noted: previously reported by the authors, ref not given, cited from earlier work.
Another data set has as its system HeLa. Also on record: method as in not given. To be noted: previously reported by the authors, ref not given, cited from earlier work.
The nature of a further data set: Solubility (statements). It counts as physicochemical.
The next data set has as its system CT-DNA. Description: Interaction with CT-DNA by circular dichroism. It counts as binding, calf. To be noted: 50 μM CT-DNA, 50 μM cisplatin, 37 °C, 24 h in the dark (positive control). The protocol:
Platinum(II) complexes, such as cisplatin, presenting exchangeable ligands are well known to interact with puric bases of DNA, leading to the formation of intra- and interstrand cross-links and in turn to transcription inhibition, cell cycle arrest, and ultimately cell death. Based on the reactivity in the cell culture medium, the interaction of complexes 1–4 and cisplatin with CT-DNA was investigated by circular dichroism (CD) spectroscopy after incubation at 37 °C for 24 h in the dark or for 4 h incubation and 5 min irradiation at 450 nm, followed by 20 h incubation, following a reported protocol. The CD spectrum of CT-DNA presents a positive peak at 280 nm, assigned to base stacking, and a negative peak at 245 nm, assigned to helicity.
A stock solution of calf thymus DNA (CT-DNA) was prepared in 5 mM TRIS·HCl, and 50 mM NaCl (pH 7.4). The concentration of nucleotides was assayed at 260 nm using ε = 6600 M^–1.cm^–1 (c = 3.38 mM). […] Circular dichroism spectra (238–340 nm, 5 scans) were recorded in a 1 cm path length cell on a J-815 CD spectrometer (JASCO) at 20 °C with 0.1 nm data pitch, 50 nm/min scan speed, and 1 nm bandwidth.
A general note: CD spectra are sensitive to the conformation of chiral molecules.

Data set [7] deals with A549. Also on record: method as in earlier work. To be noted: 72 h, dark; footnote b: values taken from ref (number not given); cited from earlier work.
The subject of data set [8] is MCF-10A. More on the design: method as in earlier work. The settings on record: 72 h, dark; footnote b: values taken from ref (number not given); cited from earlier work.
Data set [9] deals with MDA-MB-231. More on the design: method as in earlier work. To be noted: 72 h, dark; footnote b: values taken from ref (number not given); cited from earlier work.
Setting [10] is: 4 h preincubation, 5 min irradiation at 450 nm, then dark until 72 h, read-out: EC50 MDA-MB-231 light.
The mark [11] stands for this setting: 72 h incubation at 37 °C, dark, read-out: EC50 MDA-MB-231 dark.
[12] abbreviates: 4 h preincubation, 5 min irradiation at 450 nm, then dark until 72 h, read-out: EC50 A549 light.
Where [13] appears, read: 72 h incubation at 37 °C, dark, read-out: EC50 A549 dark.
The mark [14] stands for this setting: 4 h preincubation, 5 min irradiation at 450 nm, then dark until 72 h, read-out: EC50 MCF-10A light.
The mark [15] stands for this setting: 72 h incubation at 37 °C, dark, read-out: EC50 MCF-10A dark.

As to [Pt(Me2N-pbt)(pic-κN,O)] [Complex 1], the “stability in serum-free DMEM, UV–vis spectral changes, 24 h” value in data set [1] was “further evolved”. Also, in data set [1], the “stability in serum-free DMEM, UV–vis spectral changes, first 4 h” value is listed as “first spectral modification”. Besides, the EC50 in the data set on MDA-MB-231 [2] (setting [10]) stood at 170 ± 50 nM; in the data set with MDA-MB-231 [2] (setting [11]), 500 ± 60 nM; in the data set with A549 [3] (setting [12]) it was 570 ± 30 nM; in the data set on A549 [3] (setting [13]) it was 1500 ± 100 nM; in the data set on MCF-10A [5] (setting [14]) it was 300 ± 100 nM; in the data set with MCF-10A [5] (setting [15]), 470 ± 50 nM. Besides, in data set [4], the “quantum yield (ϕΔ) of 1O2” value stood at 13.6%.
With “[Pt(Me2N-pbt)(3-NH2-pic-κN,O)] [Complex 2]”, the “stability in serum-free DMEM, UV–vis spectral changes, 24 h” value in data set [1] is “spectral features of both complexes changed”. Moreover, the “stability in serum-free DMEM, UV–vis spectral changes, first 4 h” value in data set [1] is given as “no spectral changes”. Besides, the EC50 stood at 260 ± 50 nM in the data set with MDA-MB-231 [2] (setting [10]); 800 ± 200 nM in the data set on MDA-MB-231 [2] (setting [11]); 1000 ± 200 nM in the data set with A549 [3] (setting [12]); 1900 ± 400 nM in the data set on A549 [3] (setting [13]); 400 ± 100 nM in the data set with MCF-10A [5] (setting [14]); 700 ± 200 nM in the data set on MCF-10A [5] (setting [15]). Besides, the “quantum yield (ϕΔ) of 1O2” value in [4] was 17.4%.
On to [Pt(Me2N-pbt)(o-dpb)], for which the IC50 with A549 [6] (1 min of irradiation (396 nm), read-out: IC50 A549 upon irradiation) is 830 nM; with HeLa (1 min of irradiation (396 nm), read-out: IC50 HeLa upon irradiation) it was 1500 nM. In the data set with A549 [6] (dark), the “activity in the dark, A549” value was “inactive”. For the same molecule, the “activity in the dark, HeLa” value with HeLa (dark) is “inactive”.
On to “[Pt(Me2N-pbt)(4-COOH-pic-κN,O)] [Complex 4]”, for which the “stability in serum-free DMEM, UV–vis spectral changes, first 4 h” value in data set [1] is listed as “quantitative transformation”. The solubility result in the data set “Solubility (statements)” was “only soluble in DMSO”. In addition, in the data set on MDA-MB-231 [2] (5 min irradiation at 450 nm), the “photoactivity index (PI), EC50 dark / EC50 after irradiation, MDA-MB-231” value is recorded as “very limited phototoxicity”. Moreover, the 50% effective concentration (EC50) is 15900 ± 3600 nM with MDA-MB-231 [2] (setting [10]); 42400 ± 4200 nM with MDA-MB-231 [2] (setting [11]); over 100000 nM in the data set on A549 [3] (setting [12]); over 100000 nM with A549 [3] (setting [13]); 15000 ± 900 nM with MCF-10A [5] (setting [14]); 21700 ± 4200 nM in the data set with MCF-10A [5] (setting [15]). Further, the “photoactivity index (PI), EC50 dark / EC50 after irradiation, A549” value in the data set on A549 [3] (5 min irradiation at 450 nm) is “very limited phototoxicity”. Also, in the data set on MCF-10A [5] (5 min irradiation at 450 nm), the “photoactivity index (PI), EC50 dark / EC50 after irradiation, MCF-10A” value is on record as “very limited phototoxicity”.
In the case of `N.N.[Cl][Pt][Cl]` [Cisplatin], the “modification of the CD spectrum of CT-DNA” value in the data set with CT-DNA is “decrease of the band at 245 nm and an increase of the band at 280 nm”. The half-maximal effective concentration (EC50) in the data set with A549 [7] was 1700 ± 500 nM; with MCF-10A [8], 2900 ± 800 nM; in the data set with MDA-MB-231 [9], 20400 ± 3400 nM.

As usually defined, the EC50 is the midpoint of the concentration-response curve. In general, IC50 refers to the concentration needed to halve the response being measured.
